Data set [1] can be described thus: Cytotoxicity assay (CCK-8), K562. It counts as cell-based. As to conditions: human; K562 cells, CCK-8, 72 h; read-out: Cytotoxic results IC50, K562. On the procedure:
(§1) Cytotoxic activities of the isolated compounds 1–17 and trichostatin A (TSA, positive control) against 10 tumor cell lines (K562, MCF-7, A549, Huh-7, H1975, HeLa, HL7702, HL60, MOLT-4, and DU145) were tested. […]. Cytotoxicity was assayed with the CCK-8 (Dojindo, Japan) method. 10 Cell lines K562, MCF-7, A549, Huh-7, H1975, Hela, HL7702, HL60, MOLT-4, and DU145 were purchased from Shanghai Cell Bank, Chinese Academy of Sciences. Cells were routinely grown and maintained in RPMI or DMEM media with 10% fetal bovine serum and with 1% penicillin/streptomycin. All cell lines were incubated in a Thermo/ Forma Scientific CO2 water-jacketed incubator with 5% CO2 in air at 37 °C. A cell viability assay was determined with the CCK-8 (Dojindo, Japan) assay. Cells were seeded at a density of 400−800 cells/well in 384-well plates and treated with various concentrations of compounds or solvent control. After 72 h incubation, CCK-8 reagent was added, and absorbance was measured at 450 nm using an Envision 2104 multilabel reader (PerkinElmer, USA). Dose−response curves were plotted to determine the IC50 values using Prism 5.0 (GraphPad Software Inc., USA).

Data set [2] is described as follows: Cytotoxicity assay (CCK-8), MCF-7. In kind it is cell-based. Conditions: human; MCF-7 cells, CCK-8, 72 h; read-out: Cytotoxic results IC50, MCF-7. The method, then:
as §1

A short description of data set [3]: Cytotoxicity assay (CCK-8), A549. It counts as cell-based. Conditions: human; A549 cells, CCK-8, 72 h; read-out: Cytotoxic results IC50, A549. On the procedure:
as §1

The nature of data set [4]: Cytotoxicity assay (CCK-8), Huh-7. It counts as cell-based. Conditions: human; Huh-7 cells, CCK-8, 72 h; read-out: Cytotoxic results IC50, Huh-7. The method, then: as §1
A short description of data set [5]: Cytotoxicity assay (CCK-8), H1975. As to conditions: human; H1975 cells, CCK-8, 72 h; read-out: Cytotoxic results IC50, H1975. In kind it is cell-based. On the procedure: as §1
A short description of data set [6]: Cytotoxicity assay (CCK-8), HeLa. In kind it is cell-based. As to conditions: human; HeLa cells, CCK-8, 72 h; read-out: Cytotoxic results IC50, HeLa. On the procedure:
as §1

Data set [7] in a line: Cytotoxicity assay (CCK-8), HL7702. In kind it is cell-based. Conditions: human; HL7702 cells, CCK-8, 72 h; read-out: Cytotoxic results IC50, HL7702. On the procedure:
as §1

The nature of data set [8]: Cytotoxicity assay (CCK-8), HL60. It counts as cell-based. Conditions: human; HL60 cells, CCK-8, 72 h; read-out: Cytotoxic results IC50, HL60. The method, then:
as §1

Data set [9] in a line: Cytotoxicity assay (CCK-8), MOLT-4. It counts as cell-based. As to conditions: human; MOLT-4 cells, CCK-8, 72 h; read-out: Cytotoxic results IC50, MOLT-4. The method, then: as §1
Data set [10] can be described thus: Cytotoxicity assay (CCK-8), DU145. It counts as cell-based. As to conditions: human; DU145 cells, CCK-8, 72 h; read-out: Cytotoxic results IC50, DU145. The method, then: as §1
Data set [11] can be described thus: Cytotoxicity against the panel of 10 tumor cell lines (summary statements). It counts as cell-based. As to conditions: human. On the procedure: as §1
For data set [12], the system named is 10 tumor cell lines (K562, MCF-7, A549, Huh-7, H1975, HeLa, HL7702, HL60, MOLT-4, and DU145). The description is as above. In kind it is cell-based. On the procedure: as §1
The target of data set [13] is T1, COX-2 (Ovis aries, UniProt P79208).
T1 construct: purchased
T1 sequence (P79208 17-603): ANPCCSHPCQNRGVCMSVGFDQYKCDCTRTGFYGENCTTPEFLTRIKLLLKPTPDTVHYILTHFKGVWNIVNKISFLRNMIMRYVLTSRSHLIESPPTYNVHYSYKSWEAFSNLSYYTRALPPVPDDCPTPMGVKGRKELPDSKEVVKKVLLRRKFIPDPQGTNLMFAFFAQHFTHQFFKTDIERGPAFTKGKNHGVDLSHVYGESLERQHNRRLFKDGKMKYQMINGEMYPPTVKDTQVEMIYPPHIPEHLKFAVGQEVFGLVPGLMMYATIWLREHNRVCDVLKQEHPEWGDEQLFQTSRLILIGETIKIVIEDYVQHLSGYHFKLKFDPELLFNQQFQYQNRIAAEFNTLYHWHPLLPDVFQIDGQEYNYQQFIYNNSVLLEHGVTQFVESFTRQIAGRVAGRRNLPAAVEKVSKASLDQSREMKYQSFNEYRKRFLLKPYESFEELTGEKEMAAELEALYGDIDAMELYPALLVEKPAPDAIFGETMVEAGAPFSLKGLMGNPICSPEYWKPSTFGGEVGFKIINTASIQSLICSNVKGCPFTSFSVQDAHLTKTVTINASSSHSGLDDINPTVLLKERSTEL
The data set is described as follows: COX-2 inhibitory activity assay (COX (ovine) inhibitor screening kit). In kind it is biochemical. Conditions: enzyme immunoassay. On the procedure:
According to the manufacturer's instructions. The test compounds were dissolved in DMSO and the final concentration was set as 10 μM.
The COX-2 enzyme is a well-established target for anti-inflammatory evaluation. […] The COX-2 enzyme catalyses the biosynthesis of PGH2 from arachidonic acid. In this assay, the PGF2a produced by the reduction of PGH2 with stannous chloride (SnCl2) was measured in this enzyme immunoassay. The stock solutions were prepared in dimethyl sulfoxide, and the final concentration was set as 10 mM for the isolated compounds. The percentage inhibition was calculated by comparison with control incubations.

For data set [14], the system named is K562. The data set is described as follows: Cytotoxicity assay (CCK-8), K562. Conditions: K562 cells, CCK-8, 72 h; read-out: Cytotoxic results IC50, K562. It counts as cell-based. On the procedure: as §1
The test system of data set [15] is MCF-7. Description: Cytotoxicity assay (CCK-8), MCF-7. In kind it is cell-based. As to conditions: MCF-7 cells, CCK-8, 72 h; read-out: Cytotoxic results IC50, MCF-7. On the procedure:
as §1

Data set [16] deals with A549. Description: Cytotoxicity assay (CCK-8), A549. In kind it is cell-based. As to conditions: A549 cells, CCK-8, 72 h; read-out: Cytotoxic results IC50, A549. On the procedure: as §1
Data set [17] relates to Huh-7. The data set is described as follows: Cytotoxicity assay (CCK-8), Huh-7. It counts as cell-based. Conditions: Huh-7 cells, CCK-8, 72 h; read-out: Cytotoxic results IC50, Huh-7. The method, then:
as §1

The subject of data set [18] is H1975. Description: Cytotoxicity assay (CCK-8), H1975. In kind it is cell-based. As to conditions: H1975 cells, CCK-8, 72 h; read-out: Cytotoxic results IC50, H1975. On the procedure: as §1
Data set [19] relates to HeLa. The data set is described as follows: Cytotoxicity assay (CCK-8), HeLa. It counts as cell-based. Conditions: HeLa cells, CCK-8, 72 h; read-out: Cytotoxic results IC50, HeLa. On the procedure: as §1
Data set [20] deals with HL7702. The data set is described as follows: Cytotoxicity assay (CCK-8), HL7702. It counts as cell-based. As to conditions: HL7702 cells, CCK-8, 72 h; read-out: Cytotoxic results IC50, HL7702. The method, then:
as §1

In data set [21] the test system is HL60. Description: Cytotoxicity assay (CCK-8), HL60. It counts as cell-based. As to conditions: HL60 cells, CCK-8, 72 h; read-out: Cytotoxic results IC50, HL60. The method, then:
as §1

The subject of data set [22] is MOLT-4. Description: Cytotoxicity assay (CCK-8), MOLT-4. It counts as cell-based. Conditions: MOLT-4 cells, CCK-8, 72 h; read-out: Cytotoxic results IC50, MOLT-4. On the procedure:
as §1

Data set [23] relates to DU145. Description: Cytotoxicity assay (CCK-8), DU145. In kind it is cell-based. As to conditions: DU145 cells, CCK-8, 72 h; read-out: Cytotoxic results IC50, DU145. The method, then:
as §1

Structures are written as SMILES.

Data on four compounds can be found in paper PMC6221957, “Phenol Derivatives From the Sponge-Derived Fungus Didymellaceae sp. SCSIO F46” (Frontiers in Chemistry, 2018).

As usually defined, the IC50 is the midpoint of a concentration-inhibition curve.

For the compound `COC(=O)c1c(C)cc(O)cc1Oc1cc(C)cc(O)c1` [Compound 3, Diorcinol L], the IC50 at 72 h in data set [1] came out at 43.5 µM; in [2], 10.5 µM; in [3], 17.7 µM; in data set [4] it was 5.7 µM; in data set [5] it was 15.3 µM; in data set [6] it was 7.1 µM. For the same compound, the concentration for half-maximal inhibition (IC50) at 72 h was 68.2 µM in data set [7]; 9.6 µM in data set [8]; over 200 µM in data set [9]; 9.1 µM in data set [10]; 5.7 to 9.6 µM in data set [11] (range over Huh-7, HeLa, DU145 and HL60 cells, read-out: Cytotoxicities IC50 values against Huh-7, HeLa, DU145 and HL60 cells); 5.7 to 68.2 µM in data set [11] (range over the tumor cell lines of Table 3, read-out: Cytotoxicities IC50 values in the range over the cell lines). The “Activities against other five cell lines (in words)” value in data set [12] (cell lines other than Huh-7, HeLa, DU145 and HL60) is given as “weak activities”.

Take `Cc1cc(O)c(O)c2oc3c(C(=O)O)cc(O)cc3c12` [Compound 6, Porric acid E]: the midpoint of inhibition in data set [13], the IC50, lay at 3.3 µM.

With `Cc1cc(CO)c2c(=O)c3c(O)cccc3oc2c1` [Compound 8, 1-Hydroxy-6-methyl-8-hydroxy-methylxanthone], the IC50 at 72 h in [1] was over 200 µM; in [2], 141 µM; in data set [3] it was 128 µM; in data set [4], 122 µM; in [5], over 200 µM; in data set [6], 14.3 µM. The IC50 at 72 h in [7] is 33.8 µM; in [8] it was over 200 µM; in data set [9], over 200 µM; in data set [10], over 200 µM. In addition, in data set [12] (HeLa and HL7702 cells), the “Cytotoxicities against HeLa and HL7702 cells (in words)” value is “weak selective cytotoxicities”.

Regarding `CC(/C=C/C(=O)NO)=C\[C@@H](C)C(=O)c1ccc(N(C)C)cc1` [TSA, trichostatin A, reference compound], the IC50 was 0.1 µM in [14]; 0.7 µM in data set [15]; 0.3 µM in data set [16]; 0.08 µM in [17]; 0.09 µM in data set [18]; 0.08 µM in data set [19]. Moreover, the IC50 in data set [20] is 0.09 µM; in data set [21], 0.04 µM; in [22], 0.03 µM; in [23] it was 0.04 µM.
